Data set [1] has as its system MDA-MB-231 BC cells. As to the kind of experiment: EVOCA with MDA-MB-231 cells, tumor gene mRNA by PCR. The data set is classed as cell-based, human. Particulars: 7d EVOCA. Here is the method: FIGS. 7A, 7B, and 7C show the effects of bPTH7-34DD on MDA-MB-231; 7d EVOCA, PCR as done in FIG. 5.
(§1) EVOCA (ex vivo organ co-culture assay) of breast cancer cells and bone: Segments of neonatal mouse bone are prepared by a modification of Mohammad et al [2008]. Calvariae from euthanized 14 day old Swiss Webster pups are cut into 5 mm disks with a biopsy punch, yielding two disks (hemi-calvariae) per pup, and placed into wells of uncoated 24-well plates. Calvariae from βArr2−/− and +/+ littermates, as available, can be shipped in sterile tubes in standard tissue culture medium by overnight FedEx from the Luttrell laboratory at Medical University of South Carolina. Bones shipped overnight in media survive the shipping and give reproducible results, compared to freshly harvested bones. […] At the end of the incubation, bone are either fixed and decalcified for routine histology or homogenized for RNA isolation with a bead beater, using QIAGEN RNeasy mini kits, converted to cDNA (Biorad iScript,), and analyzed by quantitative PCR using Biorad SYBR green PCR kits and a Biorad iCycler single-color real-time detection system. […] EVOCA cultures can be analyzed by histology and IHC staining. […]

Data set [2] has as its system calvarial osteoblasts. The note with it: osteoblasts from treated mice; cited from earlier work.
Data set [3] has as its system MDA-MB-231 breast cancer cells. As to the kind of experiment: EVOCA (ex vivo organ co-culture assay of tumor + bone), tumor burden by SSQ-PCR for hRPL32. The data set is classed as cell-based, human. Particulars: 7d EVOCA, wt bones. Here is the method:
7D EVOCA. Tumor burden by SSQ-PCR for hRPL32.
as §1, with “bones. Cancer cells (2-10×10^3, depending on cell types and ability to adhere to bones; e.g., 2,000 for MDA-MB-231) are added in 0.5 ml BGJb medium (Life Technologies) +10% fetal calf serum and incubated at 37° C. in 5% CO2.” for “bones.”

Data set [4] has as its system bone. Particulars: cited from earlier work.
Where [5] appears, read: 4 or 8 weeks, once-daily injection.
Where [6] appears, read: continuous infusion, 40 μg/kg/d.

Structures are written as SMILES.

In the case of `Fc1ccc(Cl)cc1-c1nc(Nc2ccncc2)c2nccnc2n1` [SD208], the “tumor hPTHrP mRNA” value in data set [1] is given as “not seen”.

For the molecule `CC[C@H](C)[C@H](NC(=O)[C@H](CCC(=O)O)NC(=O)[C@H](CO)NC(=O)[C@@H](NC(=O)[C@@H](N)CO)C(C)C)C(=O)N[C@@H](CCC(N)=O)C(=O)N[C@@H](CC(C)C)C(=O)N[C@@H](CCSC)C(=O)N[C@@H](Cc1cnc[nH]1)C(=O)N[C@@H](CC(N)=O)C(=O)N[C@@H](CC(C)C)C(=O)NCC(=O)N[C@@H](CCCCN)C(=O)N[C@@H](Cc1cnc[nH]1)C(=O)N[C@@H](CC(C)C)C(=O)N[C@@H](CC(N)=O)C(=O)N[C@@H](CO)C(=O)N[C@@H](CCSC)C(=O)N[C@@H](CCC(=O)O)C(=O)N[C@@H](CCCN=C(N)N)C(=O)N[C@H](C(=O)N[C@@H](CCC(=O)O)C(=O)N[C@@H](Cc1c[nH]c2ccccc12)C(=O)N[C@@H](CC(C)C)C(=O)N[C@@H](CCCN=C(N)N)C(=O)N[C@@H](CCCCN)C(=O)N[C@@H](CCCCN)C(=O)N[C@@H](CC(C)C)C(=O)N[C@@H](CCC(N)=O)C(=O)N[C@@H](CC(=O)O)C(=O)N[C@H](C(=O)N[C@@H](Cc1cnc[nH]1)C(=O)N[C@@H](CC(N)=O)C(=O)N[C@@H](Cc1ccccc1)C(=O)O)C(C)C)C(C)C` [hPTH1-34], the “anabolic markers of Obl activity (RUNX2, Alk Phos, Col1A1)” value in data set [2] was “strongly increased”. In data set [3], the “MDA-MB-231 tumor growth in bone” value is “increased”. In data set [4] (setting [5]), the “cortical bone parameters (periosteal circumference and cortical thickness)” value was “increased only by hPTH1-34”; the “mineral apposition (MAR, BFR)” value is reported as “equivalently increased”; the “tibial trabecular bone parameters (BV/TV, trabecular number)” value is listed as “increased by both”. For the same molecule, in data set [4] (setting [6]), the “elevation of urinary calcium excretion” value is reported as 5 ×; the “mRNA for Dars, aspartyl-tRNA synthetase, in bone” value is “increased”; the “mRNA of Gab 1 in bone” value is given as “doubled”. The serum osteocalcin entry in data set [4] (once-daily injection) was “equivalently raised”. Besides, in data set [4] (quantitative histomorphometry), the “osteoblast number and osteoid surface” value is on record as “increased by both”; the osteoclast numbers result is listed as “increased only by hPTH1-34”.

The values above are taken from patent publication US11883468B2, “Compositions and methods to suppress tumor growth in bone, prevent cachectic muscle loss, and preserve skeletal integrity” (United States Government As Represented By The Department …, priority 2019, dated 2024).
